Data: patent US12060351B2, “Thiadiazole IRAK4 inhibitors” (Gilead Sciences, Inc., priority 2018, dated 2024)

Each compound was assayed against T1, IRAK4 enzyme (Homo sapiens, UniProt Q9NWZ3) (assay: IRAK4 Biochemical Assay (TR-FRET, STK1 KinEASE)). Conditions: 500 μM ATP, Table 2 second part (compounds 33-343), read-out: IC50 IRAK4-HTBS.
T1 construct: purchased Carna Biosciences, Chuo-ku, Kobe, Japan
T1 sequence (Q9NWZ3 1-460): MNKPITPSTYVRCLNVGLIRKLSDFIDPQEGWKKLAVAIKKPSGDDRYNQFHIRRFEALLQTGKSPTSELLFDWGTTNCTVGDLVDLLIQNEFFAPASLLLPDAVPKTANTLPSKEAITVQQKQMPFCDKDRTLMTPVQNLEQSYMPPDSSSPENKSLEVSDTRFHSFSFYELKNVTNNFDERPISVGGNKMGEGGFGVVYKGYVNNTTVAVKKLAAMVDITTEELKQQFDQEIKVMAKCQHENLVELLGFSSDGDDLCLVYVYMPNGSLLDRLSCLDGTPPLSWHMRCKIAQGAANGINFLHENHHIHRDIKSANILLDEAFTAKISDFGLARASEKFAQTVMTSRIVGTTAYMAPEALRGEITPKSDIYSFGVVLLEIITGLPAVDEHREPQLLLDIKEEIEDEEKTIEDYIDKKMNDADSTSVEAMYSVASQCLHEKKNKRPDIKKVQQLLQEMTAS
Experimental: IRAK4 enzyme (Carna Biosciences, Chuo-ku, Kobe, Japan) activity was measured by detecting phosphorylated peptide substrate formation using an antibody against the phosphorylated peptide substrate. This is a time-resolved fluorescence resonance energy transfer (TR-FRET) immunoassay, based on the STK1 KinEASE Assay (Cisbio, Bedford, Massachusetts). The assay was designed as a simple two-step, endpoint assay (a 5 μl enzyme reaction followed by 5 μl stop and detect Solution) performed in ProxiPlate-384 Plus plates (Perkin Elmer, Waltham, Massachusetts). […] Compounds diluted in DMSO were spotted into 384 well plates using a Labcyte® Echo 550 Liquid Handling System prior to addition of IRAK4 enzyme and peptide substrate. Reaction solutions were delivered using a Multi-Flo (Bio-Tek Instruments). The enzyme and peptide solution was incubated with compound for 15 minutes at room temp before the reaction was initiated by the addition of ATP. The standard 5 μl reaction mixture contained 500 μM ATP, 2 μM peptide (STK1 Peptide), 0.75 nM of IRAK4 in reaction buffer (50 mM HEPES, pH 7.0, 0.02% NaN3, 0.01% BSA, 0.1 mM Orthovanadate, 5 mM MgCl2, 0.025% NP-40, 1 mM DTT). After 120 min of incubation at room temperature, 5 μl of Stop and Detect Solution (1:100 Cryptate labeled anti-phosphorylated peptide antibody solution and 125 nM Tracer in a 50 mM HEPES pH 7.0 detection buffer containing sufficient EDTA) was added. The plate was then further incubated for 60 minutes at room temperature and read on Envision 2103 Multilabeled reader (PerkinElmer) with excitation/emission/FRET emission at 340 nm/615 nm/665 nm, respectively. Fluorescence intensities at 615 nm and 665 nm emission wavelengths were expressed as a ratio (665 nm/615 nm).
With `CC(=O)N[C@@H]1CCN(c2nnc(-c3cnc(-c4ccc5cc(C#N)cnn45)cc3NC(C)C)s2)C[C@@H]1O` [Example 63, N-((3S,4R)-1-(5-(6-(3-cyanopyrrolo[1,2-b]pyridazin-7-yl)-4-(isopropylamino)pyridin-3-yl)-1,3,4-thiadiazol-2-yl)-3-hydroxypiperidin-4-yl)acetamide] the IC50 was 0.29 nM.
`CC(C)Nc1cc(-c2ccc3cc(C#N)cnn23)ncc1-c1nnc(N2C[C@H]3CC[C@@H](C2)[C@@H]3O)s1` [Example 154, 7-(5-(5-((1R,5S,8s)-8-hydroxy-3-azabicyclo[3.2.1]octan-3-yl)-1,3,4-thiadiazol-2-yl)-4-(isopropylamino)pyridin-2-yl)pyrrolo[1,2-b]pyridazine-3-carbonitrile] gave an IC50 of 1.57 nM.

Same assay, conditions: IC50 IRAK4-HTBS, 500 μM ATP, Table 2 second part (compounds 33-343)
Compound `CC(C)Nc1cc(-c2ccc3cc(C#N)cnn23)ncc1-c1nnc([C@@H]2CC[C@H]2C(C)(C)O)s1` (racemic) [Example 88, 7-(5-(5-((1,2-trans)-2-(2-hydroxypropan-2-yl)cyclobutyl)-1,3,4-thiadiazol-2-yl)-4-(isopropylamino)pyridin-2-yl)pyrrolo[1,2-b]pyridazine-3-carbonitrile] has an IC50 of 0.83 nM.

Each compound was assayed on TNFα (assay: IRAK4 Monocyte TNFα Cell Based Assay (LPS-stimulated, TR-FRET TNFα detection)). Conditions: Homo sapiens, Monocyte, human monocytes, LPS-stimulated; Table 2 second part (compounds 33-343); read-out: EC50 MONO TNF HTRF.
Design: species or system human
Experimental: IRAK4 Monocyte TNFα Cell Based Assay Procedure:
The cell suspension was then plated at a density of 5,000 cells/well onto black 384 well Greiner clear bottom plates. Plates were pre-spotted with test compounds and serially diluted in DMSO where 40 nL/well were delivered using the Echo 550 acoustic liquid dispenser (Labcyte®) for a final DMSO concentration of 0.1%. Plated cells were treated with compound for 1 hour at 37° C. Cells were then stimulated with 50 pg/ml of LPS (Sigma) excluding outside columns of plate used for unstimulated cell control wells. Cells were incubated for an additional 4 hours at 37° C. Cells were then spun out of the media and 5 μl of sample were taken and analyzed for total TNFα content using the TR-FRET Human TNFα detection system (CisBio). This system utilizes two labeled antibodies (cryptate and XL665) that bind to two different epitopes of the TNFα molecule and produce FRET signal proportional to the concentration of TNFα in the sample. Detection antibodies are mixed 50:50 and 5 μL were dispensed into each well. Plates were covered with clear seals and incubated at room temp overnight. […] Percent of control was calculated as follows: % Control=100×(RatioSample−Ratio0% Stimulation)/(Ratio100% Stimulation−Ratio0% Stimulation) where unstimulated cells (0% stimulation) were the negative control and stimulated cells (100% stimulation) were used as the positive control.
`CC(C)Nc1cc(-c2ccc3cc(C#N)cnn23)ncc1-c1nnc([C@H]2C[C@H](NC3COC3)C2)s1` [Example 283, 7-(4-(isopropylamino)-5-(5-((1r,3r)-3-(oxetan-3-ylamino)cyclobutyl)-1,3,4-thiadiazol-2-yl)pyridin-2-yl)pyrrolo[1,2-b]pyridazine-3-carbonitrile] was tested, and the EC50 was 19.9 nM.
Work on `CC(C)Nc1cc(-c2ccc3cc(C#N)cnn23)ncc1-c1nnc(N2CCS(=O)(=O)CC2)s1` [Compound 257, 7-(5-(5-(1,1-dioxidothiomorpholino)-1,3,4-thiadiazol-2-yl)-4-(isopropylamino)pyridin-2-yl)pyrrolo[1,2-b]pyridazine-3-carbonitrile] yielded an EC50 of no less than 10000 nM.
`CC(C)Nc1cc(-c2ccc3cc(C#N)cnn23)ncc1-c1nnc([C@H]2C[C@@H](NC(=O)C3CC3)C2)s1` [Example 281, N-((1s,3s)-3-(5-(6-(3-cyanopyrrolo[1,2-b]pyridazin-7-yl)-4-(isopropylamino)pyridin-3-yl)-1,3,4-thiadiazol-2-yl)cyclobutyl)cyclopropanecarboxamide] showed an EC50 of 8280 nM.
For `CC(C)Nc1cc(-c2ccc3cc(C#N)cnn23)ncc1-c1nnc(C2CCNCC2)s1` [Example 129, 7-(4-(isopropylamino)-5-(5-(piperidin-4-yl)-1,3,4-thiadiazol-2-yl)pyridin-2-yl)pyrrolo[1,2-b]pyridazine-3-carbonitrile], the EC50 was 21.7 nM.
For `CC(=O)N[C@@H]1[C@@H]2CC[C@H]1CN(c1nnc(-c3cnc(-c4ccc5cc(C#N)cnn45)cc3N[C@H](C)C#N)s1)C2` [Example 53, N-((1R,5S,8S)-3-(5-(4-(((R)-1-cyanoethyl)amino)-6-(3-cyanopyrrolo[1,2-b]pyridazin-7-yl)pyridin-3-yl)-1,3,4-thiadiazol-2-yl)-3-azabicyclo[3.2.1]octan-8-yl)acetamide], the EC50 was 0.6 nM.
In the case of `CC(C)Nc1cc(-c2ccc3cc(C#N)cnn23)ncc1-c1nnc(N2C[C@H]3CC[C@@H](C2)[C@@H]3NC(=O)N2CCN(C3COC3)CC2)s1` [Example 116, N-((1R,5S,8s)-3-(5-(6-(3-cyanopyrrolo[1,2-b]pyridazin-7-yl)-4-(isopropylamino)pyridin-3-yl)-1,3,4-thiadiazol-2-yl)-3-azabicyclo[3.2.1]octan-8-yl)-4-(oxetan-3-yl)piperazine-1-carboxamide], the EC50 is reported as 4.1 nM.
In the case of `CC(=O)N1CCN(C(=O)N[C@@H]2[C@@H]3CC[C@H]2CN(c2nnc(-c4cnc(-c5ccc6cc(C#N)cnn56)cc4NC(C)C)s2)C3)CC1` [Example 104, 4-acetyl-N-((1R,5S,8s)-3-(5-(6-(3-cyanopyrrolo[1,2-b]pyridazin-7-yl)-4-(isopropylamino)pyridin-3-yl)-1,3,4-thiadiazol-2-yl)-3-azabicyclo[3.2.1]octan-8-yl)piperazine-1-carboxamide], the EC50 is reported as 1.7 nM.
With `CC(C)Nc1cc(-c2ccc3cc(C#N)cnn23)ncc1-c1nnc(N2C[C@H]3CC[C@@H](C2)[C@@H]3NC(=O)[C@@H](C)O)s1` [Example 90, (R)-N-((1R,5S,8s)-3-(5-(6-(3-cyanopyrrolo[1,2-b]pyridazin-7-yl)-4-(isopropylamino)pyridin-3-yl)-1,3,4-thiadiazol-2-yl)-3-azabicyclo[3.2.1]octan-8-yl)-2-hydroxypropanamide] the EC50 was 3.6 nM.
In the case of `CC(=O)NC12CCC(c3nnc(-c4cnc(-c5ccc6cc(C#N)cnn56)cc4N[C@H](C)C#N)s3)(CC1)CC2` [Example 72, (R)-N-(4-(5-(4-((1-cyanoethyl)amino)-6-(3-cyanopyrrolo[1,2-b]pyridazin-7-yl)pyridin-3-yl)-1,3,4-thiadiazol-2-yl)bicyclo[2.2.2]octan-1-yl)acetamide], the EC50 is reported as 2.8 nM.
`CC(C)(O)C(=O)NC12CCC(c3nnc(-c4cnc(-c5ccc6cc(C#N)cnn56)cc4NC4CCOCC4)s3)(CC1)CC2` [Example 337, N-(4-(5-(6-(3-cyanopyrrolo[1,2-b]pyridazin-7-yl)-4-((tetrahydro-2H-pyran-4-yl)amino)pyridin-3-yl)-1,3,4-thiadiazol-2-yl)bicyclo[2.2.2]octan-1-yl)-2-hydroxy-2-methylpropanamide] gave an EC50 of 3.3 nM.
With `CC(C)Nc1cc(-c2ccc3cc(C#N)cnn23)ncc1-c1nnc(N2C[C@H]3CC[C@@H](C2)[C@@H]3NC(=O)N2CCN(C)CC2)s1` [Example 96, N-((1R,5S,8s)-3-(5-(6-(3-cyanopyrrolo[1,2-b]pyridazin-7-yl)-4-(isopropylamino)pyridin-3-yl)-1,3,4-thiadiazol-2-yl)-3-azabicyclo[3.2.1]octan-8-yl)-4-methylpiperazine-1-carboxamide] the EC50 was 2.3 nM.

Same assay, conditions: Homo sapiens, Monocyte, read-out: EC50 MONO TNF HTRF
For `C[C@H](C#N)Nc1cc(-c2ccc3cc(C#N)cnn23)ncc1-c1nnc(N2CC3CC(C2)N3C(=O)C(C)(C)O)s1` [Example 115, 7-(4-(((R)-1-cyanoethyl)amino)-5-(5-(6-(2-hydroxy-2-methylpropanoyl)-3,6-diazabicyclo[3.1.1]heptan-3-yl)-1,3,4-thiadiazol-2-yl)pyridin-2-yl)pyrrolo[1,2-b]pyridazine-3-carbonitrile], the EC50 was 3.5 nM.

Same assay, conditions: human monocytes, LPS-stimulated; Table 2 second part (compounds 33-343); read-out: EC50 MONO TNF HTRF
Work on `CC1(Nc2cc(-c3ccc4cc(C#N)cnn34)ncc2-c2nnc(N3CC4CC(C3)N4C(=O)C(C)(C)O)s2)COC1` [Example 112, 7-(5-(5-(6-(2-hydroxy-2-methylpropanoyl)-3,6-diazabicyclo[3.1.1]heptan-3-yl)-1,3,4-thiadiazol-2-yl)-4-((3-methyloxetan-3-yl)amino)pyridin-2-yl)pyrrolo[1,2-b]pyridazinc-3-carbonitrile] yielded an EC50 of 13.1 nM.
In the case of `CC(C)Nc1cc(-c2ccc3cc(C#N)cnn23)ncc1-c1nnc(N2CC3CC(C2)N3C(=O)CN=S(C)(C)=O)s1` [Example 107, 7-(5-(5-(6-(2-((dimethyl(oxo)-16-sulfanylidene)amino)acetyl)-3,6-diazabicyclo[3.1.1]heptan-3-yl)-1,3,4-thiadiazol-2-yl)-4-(isopropylamino)pyridin-2-yl)pyrrolo[1,2-b]pyridazine-3-carbonitrile], the EC50 is reported as 18.4 nM.
